Measured values reported in ChEMBL document CHEMBL4732231, “Combretastatin A-4 sulfur-containing heterocyclic derivatives: Synthesis, antiproliferative activities and molecular docking studies” (Eur J Med Chem, 2021).
The source made the active and inactive calls. The calls are words filed in the database; no cut-off is given here.

Target: T1, Tubulin (Homo sapiens) (UniProt P68371+Q9H4B7+P0DPH7+P68366+Q13509+Q71U36+P04350+Q3ZCM7+P07437+P68363+Q9BQE3+Q6PEY2+Q13885+Q9BVA1+Q9BUF5)
Test: Inhibition of tubulin polymerization in human HeLa cells assessed as dynamic tyrosinated microtubules content at 2 uM by incubated for 2 hrs by immunofluorescence staining based assay
Format: cell-based
Conditions: not given

Row | Compound | inhibition
1 | COc1ccc2sc(/C=C\c3cc(OC)c(OC)c(OC)c3)cc2c1 | 62%

Target: Tubulin
Test: Inhibition of tubulin polymerization in human HeLa cells assessed as dynamic tyrosinated microtubules content by incubated for 2 hrs by immunofluorescence staining based assay
Format: cell-based
Conditions: not given

Row | Compound | EC50
2 | COc1cc(/C=C\c2cc3cc(F)ccc3s2)cc(OC)c1OC | 523 nM
3 | COc1cc(/C=C\c2cc3cc(O)ccc3s2)cc(OC)c1OC | 717 nM
4 | COc1cc(/C=C\c2sc3ccccc3c2C)cc(OC)c1OC | 555 nM
5 | COc1ccsc1/C=C\c1cc(OC)c(OC)c(OC)c1 | > 10000 nM

Tested on: RL
Test: Induction of cell cycle arrest in human RL cells assessed as increase in accumulation in G2/M phase at 10 nM incubated for 24 hrs by PI staining based flow cytometry analysis (reference value: 23.3 %)
Format: functional
Conditions: not given

Row | Compound | Activity
6 | COc1csc(/C=C\c2cc(OC)c(OC)c(OC)c2)c1 | 48.8%

Tested on: RL
Test: Induction of cell cycle arrest in human RL cells assessed as effect on cell cycle distribution at 1 nM incubated for 48 hrs by PI staining based flow cytometry analysis (reference value: 8 %)
Format: functional
Conditions: not given

Row | Compound | Activity
7 | COc1csc(/C=C\c2cc(OC)c(OC)c(OC)c2)c1 | inactive

Target: T1, Tubulin (Homo sapiens)
Test: Inhibition of tubulin polymerization in human HeLa cells assessed as dynamic tyrosinated microtubules content at 14 uM by incubated for 2 hrs by immunofluorescence staining based assay
Format: cell-based
Conditions: not given

Row | Compound | inhibition
8 | COc1cc(C(=O)C(=O)c2cc3ccccc3s2)cc(OC)c1OC | 35%

Tested on: RL
Test: Antiproliferative activity against human RL cells assessed as reduction in cell viability incubated for 72 hrs by MTT assay
Format: functional, cell-based
Conditions: not given

Row | Compound | IC50
9 | COc1csc(/C=C\c2cc(OC)c(OC)c(OC)c2)c1 | 11 nM
10 | COc1cc(/C=C\c2cc3cc(F)ccc3s2)cc(OC)c1OC | 38 nM
11 | COc1cc(/C=C\c2cc3ccccc3s2)cc(OC)c1OC | 7.6 nM
12 | COc1cc(/C=C\c2sc3ccccc3c2C)cc(OC)c1OC | 61 nM
13 | COc1cc2c(c(OC)c1OC)-c1ccc(OC)c(=O)cc1[C@@H](NC(C)=O)CC2 [COLCHICINE] | 4.4 nM
14 | COc1ccsc1/C=C\c1cc(OC)c(OC)c(OC)c1 | > 1000 nM
15 | COc1ccc(/C=C\c2cc(OC)c(OC)c(OC)c2)cc1O [COMBRETASTATIN A4] | 1.4 nM

Tested on: RL
Test: Induction of cell cycle arrest in human RL cells assessed as increase in accumulation in subG0/G1 phase at 10 nM incubated for 24 hrs by PI staining based flow cytometry analysis (reference value: 4.5 %)
Format: functional
Conditions: not given

Row | Compound | Activity
16 | COc1csc(/C=C\c2cc(OC)c(OC)c(OC)c2)c1 | 15.6%
17 | COc1ccc(/C=C\c2cc(OC)c(OC)c(OC)c2)cc1O [COMBRETASTATIN A4] | 19.3%

Tested on: RL
Test: Induction of cell cycle arrest in human RL cells assessed as increase in accumulation in subG0/G1 phase at 1 nM incubated for 48 hrs by PI staining based flow cytometry analysis (reference value: 8 %)
Format: functional
Conditions: not given

Row | Compound | Activity
18 | COc1ccc(/C=C\c2cc(OC)c(OC)c(OC)c2)cc1O [COMBRETASTATIN A4] | 30.1%

Target: T1, Tubulin (Homo sapiens)
Test: Inhibition of tubulin polymerization in human HeLa cells assessed as dynamic tyrosinated microtubules content at 1 uM by incubated for 2 hrs by immunofluorescence staining based assay
Format: cell-based
Conditions: not given

Row | Compound | inhibition
19 | COc1ccc2sc(/C=C\c3cc(OC)c(OC)c(OC)c3)cc2c1 | 14%

Tested on: A2780
Test: Antiproliferative activity against human A2780 cells assessed as reduction in cell viability incubated for 72 hrs by MTT assay
Format: functional, cell-based
Conditions: A2780, 72 h

Row | Compound | IC50
20 | COc1csc(/C=C\c2cc(OC)c(OC)c(OC)c2)c1 | 13 nM
21 | COc1cc(/C=C\c2cc3cc(F)ccc3s2)cc(OC)c1OC | 200 nM
22 | COc1cc(/C=C\c2cc3ccccc3s2)cc(OC)c1OC | 7.9 nM
23 | COc1cc(/C=C\c2sc3ccccc3c2C)cc(OC)c1OC | 360 nM
24 | COc1cc2c(c(OC)c1OC)-c1ccc(OC)c(=O)cc1[C@@H](NC(C)=O)CC2 [COLCHICINE] | 14 nM
25 | COc1ccsc1/C=C\c1cc(OC)c(OC)c(OC)c1 | > 1000 nM
26 | COc1ccc(/C=C\c2cc(OC)c(OC)c(OC)c2)cc1O [COMBRETASTATIN A4] | 2.5 nM

Tested on: MES-SA/Dx5
Test: Antiproliferative activity against multidrug-resistant human MES-SA/Dx5 cells assessed as reduction in cell viability incubated for 72 hrs by prestoblue dye based assay
Format: functional
Conditions: MES-SA/Dx5, 72 h

Row | Compound | IC50
27 | COc1csc(/C=C\c2cc(OC)c(OC)c(OC)c2)c1 | 27 nM
28 | C=C(c1cc(OC)c(OC)c(OC)c1)c1cc2ccccc2s1 | 150 nM
29 | COc1cc(/C=C\c2cc3ccccc3s2)cc(OC)c1OC | 19 nM
30 | COc1cc2c(c(OC)c1OC)-c1ccc(OC)c(=O)cc1[C@@H](NC(C)=O)CC2 [COLCHICINE] | 757 nM
31 | COc1cc(/C=C\c2csc3ccccc23)cc(OC)c1OC | 288 nM
32 | COc1ccc(/C=C\c2cc(OC)c(OC)c(OC)c2)s1 | 75 nM
33 | COc1ccc(/C=C\c2cc(OC)c(OC)c(OC)c2)cc1O [COMBRETASTATIN A4] | 3 nM

Tested on: MIA PaCa-2
Test: Antiproliferative activity against human MIA PaCa-2 cells assessed as reduction in cell viability incubated for 72 hrs by MTT assay
Format: functional, cell-based
Conditions: MIA PaCa-2, 72 h

Row | Compound | IC50
34 | COc1csc(/C=C\c2cc(OC)c(OC)c(OC)c2)c1 | 14 nM
35 | COc1cc(/C=C\c2cc3cc(F)ccc3s2)cc(OC)c1OC | 200 nM
36 | COc1cc(/C=C\c2cc3ccccc3s2)cc(OC)c1OC | 7.8 nM
37 | COc1cc(/C=C\c2sc3ccccc3c2C)cc(OC)c1OC | 120 nM
38 | COc1cc2c(c(OC)c1OC)-c1ccc(OC)c(=O)cc1[C@@H](NC(C)=O)CC2 [COLCHICINE] | 6.1 nM
39 | COc1ccsc1/C=C\c1cc(OC)c(OC)c(OC)c1 | > 1000 nM
40 | COc1ccc(/C=C\c2cc(OC)c(OC)c(OC)c2)cc1O [COMBRETASTATIN A4] | 2.1 nM

Tested on: RL
Test: Induction of cell cycle arrest in human RL cells assessed as increase in accumulation in subG0/G1 phase at 10 nM incubated for 48 hrs by PI staining based flow cytometry analysis (reference value: 8 %)
Format: functional
Conditions: not given

Row | Compound | Activity
41 | COc1csc(/C=C\c2cc(OC)c(OC)c(OC)c2)c1 | 23.4%
42 | COc1ccc(/C=C\c2cc(OC)c(OC)c(OC)c2)cc1O [COMBRETASTATIN A4] | 34.9%

Tested on: RL
Test: Induction of cell death in human RL cells assessed as cell gating level at 1 to 10 nM measured upto 48 hrs by PI staining based flow cytometry analysis (reference value: 80 to 85 %)
Format: functional
Conditions: dose 1-10 nM, time hrs <=48

Row | Compound | Activity
43 | COc1csc(/C=C\c2cc(OC)c(OC)c(OC)c2)c1 | 45%
44 | COc1ccc(/C=C\c2cc(OC)c(OC)c(OC)c2)cc1O [COMBRETASTATIN A4] | 45%
